Drawing on ChEMBL document CHEMBL3352089 (J Med Chem, 2014), this text covers viability and ΔTm for 5 compounds.

Data set [1] can be described thus: Cytotoxicity against human HepG2 cells assessed as cell viability at 1 uM after 4 hrs by Cell-Titer Glo assay. Type of data set: cell-based. The following applies: read-out: Activity.
Data set [2] is described as follows: Cytotoxicity against human HepG2 cells assessed as cell viability at 10 uM after 24 hrs by Cell-Titer Glo assay. The following applies: read-out: Activity. Type of data set: cell-based.
In data set [3] the test system is T1, Activin receptor type-1 (Homo sapiens), Q04771 [Q207D].
T1 sequence (whole entry): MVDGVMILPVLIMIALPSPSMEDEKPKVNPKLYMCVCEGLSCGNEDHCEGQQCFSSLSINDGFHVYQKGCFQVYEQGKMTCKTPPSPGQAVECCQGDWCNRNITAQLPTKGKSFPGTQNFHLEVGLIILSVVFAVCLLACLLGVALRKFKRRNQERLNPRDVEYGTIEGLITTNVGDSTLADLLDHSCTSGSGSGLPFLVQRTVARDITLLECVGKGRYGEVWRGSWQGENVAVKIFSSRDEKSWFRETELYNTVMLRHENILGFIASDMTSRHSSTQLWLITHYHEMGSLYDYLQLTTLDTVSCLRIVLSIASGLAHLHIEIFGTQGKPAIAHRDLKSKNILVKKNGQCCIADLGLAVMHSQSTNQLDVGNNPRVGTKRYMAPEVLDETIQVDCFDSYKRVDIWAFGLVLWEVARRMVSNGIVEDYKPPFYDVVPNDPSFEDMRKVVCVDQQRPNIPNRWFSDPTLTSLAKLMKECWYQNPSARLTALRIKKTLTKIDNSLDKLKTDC

A short description of data set [4]: Cytotoxicity against human HepG2 cells assessed as cell viability at 10 uM after 4 hrs by Cell-Titer Glo assay. The format is cell-based. The following applies: read-out: Activity.
Data set [5] addresses T2, TGF-beta receptor type-1 (Homo sapiens) (UniProt P36897).
T2 sequence (whole entry): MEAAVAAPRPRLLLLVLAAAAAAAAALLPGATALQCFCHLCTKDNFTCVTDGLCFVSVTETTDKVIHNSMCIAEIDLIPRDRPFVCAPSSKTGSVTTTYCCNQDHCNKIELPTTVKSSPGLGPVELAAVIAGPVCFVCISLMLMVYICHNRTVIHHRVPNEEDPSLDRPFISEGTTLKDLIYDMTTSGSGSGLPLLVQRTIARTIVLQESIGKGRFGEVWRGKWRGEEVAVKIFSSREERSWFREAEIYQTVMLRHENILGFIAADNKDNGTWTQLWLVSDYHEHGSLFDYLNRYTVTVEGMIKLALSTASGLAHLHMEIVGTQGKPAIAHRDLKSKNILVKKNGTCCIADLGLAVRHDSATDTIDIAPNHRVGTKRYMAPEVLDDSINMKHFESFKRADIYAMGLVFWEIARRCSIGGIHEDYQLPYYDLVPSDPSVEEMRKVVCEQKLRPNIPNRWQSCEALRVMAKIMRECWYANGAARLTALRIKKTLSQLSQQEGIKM
Description: Inhibition of purified ALK5 kinase (unknown origin) by RT-PCR analysis

A short description of data set [6]: Cytotoxicity against human HepG2 cells assessed as cell viability at 1 uM after 24 hrs by Cell-Titer Glo assay. Type of data set: cell-based. The following applies: read-out: Activity.
A short description of data set [7]: Cytotoxicity against human HepG2 cells assessed as cell viability at 100 uM after 4 hrs by Cell-Titer Glo assay. The format is cell-based. The following applies: read-out: Activity.
The nature of data set [8]: Cytotoxicity against human HepG2 cells assessed as cell viability at 100 uM after 24 hrs by Cell-Titer Glo assay. The format is cell-based. The following applies: read-out: Activity.

For `COc1cc(-c2cncc(-c3ccc(N4CCNCC4)cc3)c2)cc(OC)c1OC`, in data set [1], the viability at 4 h, 1 µM was greater than 75%. Further, the viability at 24 h, 10 µM in data set [2] is greater than 75%. Besides, the thermal shift (ΔTm) (commonly the change in melting temperature against a reference sample) in data set [3] was determined as 14.1 °C; in data set [5], 10.4 °C. In data set [4], the viability at 4 h, 10 µM was greater than 75%. Further, the viability at 24 h, 1 µM in data set [6] is greater than 75%.

On to `COc1cc(-c2cc(-c3ccc(N4CCNCC4)cc3)cnc2N)cc(OC)c1OC`, for which the viability at 4 h, 1 µM in data set [1] is greater than 75%. In addition, the viability at 24 h, 10 µM in data set [2] is greater than 75%. Moreover, the ΔTm in data set [3] came out at 15.1 °C; in data set [5], 13.9 °C. For the same compound, the viability at 4 h, 10 µM in data set [4] is greater than 75%. In data set [7], the viability at 4 h, 100 µM is greater than 75%. In data set [6], the viability at 24 h, 1 µM was greater than 75%.

For the compound `COc1cc(-c2cc(-c3ccc(N4CCNCC4)cc3)cnc2C)cc(OC)c1OC`, in data set [1], the viability at 4 h, 1 µM is greater than 75%. The viability at 24 h, 10 µM in data set [2] was greater than 75%. Besides, the ΔTm in data set [3] stood at 13.7 °C; in data set [5], 9.7 °C. Moreover, the viability at 4 h, 10 µM in data set [4] is greater than 75%. For the same compound, in data set [8], the viability at 24 h, 100 µM is greater than 75%. Further, the viability at 4 h, 100 µM in data set [7] was greater than 75%. In addition, in data set [6], the viability at 24 h, 1 µM was greater than 75%.

Take `COc1cc(-c2cc(-c3cccc(O)c3)cnc2N)cc(OC)c1OC`: the viability at 4 h, 1 µM in data set [1] is greater than 75%. In addition, the viability at 24 h, 10 µM in data set [2] is greater than 75%. In addition, in data set [3], the shift in melting temperature (ΔTm) came out at 13.2 °C. Besides, the viability at 4 h, 10 µM in data set [4] was greater than 75%. Moreover, the viability at 4 h, 100 µM in data set [7] is greater than 75%. For the same compound, the viability at 24 h, 1 µM in data set [6] was greater than 75%.

Consider `COc1cc(-c2cnc(N)c(-c3cc(OC)c(OC)c(OC)c3)c2)ccc1O`, for which, in data set [1], the viability at 4 h, 1 µM was greater than 75%. The viability at 24 h, 10 µM in data set [2] is greater than 75%. Also, the viability at 4 h, 10 µM in data set [4] was greater than 75%. For the same compound, in data set [8], the viability at 24 h, 100 µM is greater than 75%. Further, in data set [7], the viability at 4 h, 100 µM is greater than 75%. For the same compound, the viability at 24 h, 1 µM in data set [6] was greater than 75%.
